Consider one molecule from publication PMC5698469, “Carrageenan catabolism is encoded by a complex regulon in marine heterotrophic bacteria” (Nature Communications, 2017).

Test [1] concerns the target T1, ZGAL_3633 (Zobellia galactanivorans, UniProt G0L1N0).
T1 construct: gene bgaB
T1 sequence (G0L1N0 21-825): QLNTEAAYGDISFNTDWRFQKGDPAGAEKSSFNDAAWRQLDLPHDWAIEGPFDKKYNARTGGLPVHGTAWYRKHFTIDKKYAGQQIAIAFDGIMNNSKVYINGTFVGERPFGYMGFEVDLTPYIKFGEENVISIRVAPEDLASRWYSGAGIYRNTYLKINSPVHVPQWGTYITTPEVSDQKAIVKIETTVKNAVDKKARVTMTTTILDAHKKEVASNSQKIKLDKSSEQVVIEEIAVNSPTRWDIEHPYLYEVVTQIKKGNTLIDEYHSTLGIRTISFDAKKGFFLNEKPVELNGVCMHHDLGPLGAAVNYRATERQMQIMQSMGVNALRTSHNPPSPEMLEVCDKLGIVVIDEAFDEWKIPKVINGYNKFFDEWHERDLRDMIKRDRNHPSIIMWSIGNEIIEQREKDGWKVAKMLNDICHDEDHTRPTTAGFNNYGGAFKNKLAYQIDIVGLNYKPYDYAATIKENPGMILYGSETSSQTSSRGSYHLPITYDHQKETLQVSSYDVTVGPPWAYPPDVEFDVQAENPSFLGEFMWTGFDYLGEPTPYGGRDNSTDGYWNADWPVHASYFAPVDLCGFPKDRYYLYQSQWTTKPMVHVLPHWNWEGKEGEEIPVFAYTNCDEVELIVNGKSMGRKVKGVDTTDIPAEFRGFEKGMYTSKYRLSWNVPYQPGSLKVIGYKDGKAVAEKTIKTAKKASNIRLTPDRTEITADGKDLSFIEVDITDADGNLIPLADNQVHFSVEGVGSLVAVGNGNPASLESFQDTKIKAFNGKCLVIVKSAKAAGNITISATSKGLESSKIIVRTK
Put plainly: beta-galactosidase activity on artificial substrate. It counts as biochemical.

Test [2] deals with T2, ZGAL_4655 (Zobellia galactanivorans, UniProt G0L4M6).
T2 construct: gene bgaF
T2 sequence (G0L4M6 18-845): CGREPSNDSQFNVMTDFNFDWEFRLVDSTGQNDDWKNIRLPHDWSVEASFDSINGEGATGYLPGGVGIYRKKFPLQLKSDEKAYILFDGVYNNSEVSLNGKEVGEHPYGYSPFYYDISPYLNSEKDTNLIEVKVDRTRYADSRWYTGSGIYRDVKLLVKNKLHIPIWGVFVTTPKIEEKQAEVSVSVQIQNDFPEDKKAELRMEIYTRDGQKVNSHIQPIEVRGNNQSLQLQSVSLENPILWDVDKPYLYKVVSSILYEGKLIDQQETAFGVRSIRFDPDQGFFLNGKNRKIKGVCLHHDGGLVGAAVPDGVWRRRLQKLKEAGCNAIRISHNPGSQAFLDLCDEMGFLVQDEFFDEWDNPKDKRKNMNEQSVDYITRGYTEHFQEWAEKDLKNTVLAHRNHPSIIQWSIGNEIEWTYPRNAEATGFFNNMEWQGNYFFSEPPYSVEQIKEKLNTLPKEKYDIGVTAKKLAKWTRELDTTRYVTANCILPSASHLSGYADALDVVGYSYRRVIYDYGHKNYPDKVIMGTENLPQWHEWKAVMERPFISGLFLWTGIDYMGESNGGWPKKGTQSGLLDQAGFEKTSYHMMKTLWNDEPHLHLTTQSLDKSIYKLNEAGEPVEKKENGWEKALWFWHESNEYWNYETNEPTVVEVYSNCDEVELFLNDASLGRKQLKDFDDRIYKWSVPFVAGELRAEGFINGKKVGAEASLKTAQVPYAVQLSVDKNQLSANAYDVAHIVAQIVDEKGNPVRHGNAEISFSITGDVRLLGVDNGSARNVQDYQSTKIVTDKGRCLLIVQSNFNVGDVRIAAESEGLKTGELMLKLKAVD
Described as above. The format is biochemical.

For `O=[N+]([O-])c1ccc(O[C@@H]2O[C@H](CO)[C@H](O)[C@H](O)[C@H]2O)cc1` [pNP-beta-D-galactopyranoside], the “beta-galactosidase activity on artificial substrate” value in test [1] and in test [2] was “recombinant enzymes displayed beta-galactosidase activity on an artificial substrate (pNP-beta-D-galactopyranoside” in each case.
